The source made the active and inactive calls. The rule behind the calls is not given here.
Tests used:
Homo sapiens [1] = organism: Homo sapiens; assay: Binding affinity to human telomeric 23 G-quadruplex DNA assessed as change in melting temperature at 10 molequiv after 30 mins by CD spectra analysis
Homo sapiens [2] = organism: Homo sapiens; assay: Binding affinity to human telomeric 26 G-quadruplex DNA assessed as change in melting temperature at 10 molequiv after 30 mins by CD spectra analysis
Homo sapiens [3] = organism: Homo sapiens; assay: Binding affinity to human telomeric 23-p G-quadruplex DNA assessed as change in melting temperature at 10 molequiv after 30 mins by CD spectra analysis
Homo sapiens [4] = organism: Homo sapiens; assay: Binding affinity to G-quadruplex DNA in human BJeH-LT cells at 1 uM after 24 hrs by hoechst staining-based immunofluorescence analysis; assay type: cell-based
BJeH-LT [5] = assay: Induction of DNA damage in human BJeH-LT cells assessed as increase in gamma-H2AX foci formation at 1 uM after 24 hrs by hoechst staining-based immunofluorescence analysis; assay type: functional, cell-based
hTERT-BJ = assay: Induction of DNA damage in human hTERT-BJ cells assessed as increase in gamma-H2AX foci formation at 1 uM after 24 hrs by hoechst staining-based immunofluorescence analysis; assay type: cell-based
BJeH-LT [6] = assay: Induction of DNA damage in human BJeH-LT cells assessed as increase in telomere's dysfunction induced foci positive nuclei at 1 uM after 24 hrs by hoechst staining-based immunofluorescence analysis; assay type: functional, cell-based
BJeH-LT [7] = assay: Induction of DNA damage in human BJeH-LT cells assessed as increase in gamma-H2AX foci formation at 1 uM after 24 hrs followed by compound washout by hoechst staining-based immunofluorescence analysis; assay type: functional, cell-based
Homo sapiens [8] = organism: Homo sapiens; assay: Binding affinity to human telomeric 23-p G-quadruplex DNA assessed as increase in melting temperature up to 240 uM after 30 mins by CD spectra analysis
[9] = Binding affinity to 12-mer duplex DNA (unknown origin) at 10 molequiv after 30 mins by CD spectra analysis
Homo sapiens [10] = organism: Homo sapiens; assay: Binding affinity to human Cy5-labeled telomeric 26 G-quadruplex DNA at 10^-1 to 10^4 nM by […] analysis
BJeH-LT [11] = assay: Induction of DNA damage in human BJeH-LT cells assessed as increase in gamma-H2AX foci formation at >1 uM after 24 hrs by hoechst staining-based immunofluorescence analysis; assay type: functional, cell-based
DLD-1 [12] = assay: Antiproliferative activity against human DLD1 cells harboring BRCA2 up to 2 uM after 6 days by MTT assay; assay type: functional, cell-based
DLD-1 [13] = assay: Antiproliferative activity against human DLD1 cells deficient BRCA2 up to 2 uM after 6 days by MTT assay; assay type: functional, cell-based
Homo sapiens [14] = organism: Homo sapiens; assay: Inhibition of PARP in human BJeH-LT cells assessed as reduction of Poly(ADP-ribosyl)ation at 1 uM preincubated for 16 hrs followed by [3H]NAD addition measured after 10 mins by liquid scintillation counting method; assay type: cell-based
[15] = biological target: Poly [ADP-ribose] polymerase 1 (Homo sapiens, UniProt P09874); assay: Inhibition of recombinant human PARP1 expressed in Escherichia coli assessed as reduction of Poly(ADP-ribosyl)ation after 15 mins in presence of [3H]NAD+/cleaved DNA/histones by scintillation counting method
Homo sapiens [16] = organism: Homo sapiens; assay: Binding affinity to human telomeric 23-p G-quadruplex DNA assessed as increase in melting temperature at lower concentration after 30 mins by CD spectra analysis
Homo sapiens [17] = organism: Homo sapiens; assay: Binding affinity to human telomeric 23 G-quadruplex DNA assessed as increase in melting temperature up to 300 uM after 30 mins by CD spectra analysis
Homo sapiens [18] = organism: Homo sapiens; assay: Binding affinity to human telomeric 26 G-quadruplex DNA assessed as increase in melting temperature up to 300 uM after 30 mins by CD spectra analysis
[19] = Binding affinity to human Cy5-labeled telomeric 26 G-quadruplex DNA by […] analysis
[20] = Binding affinity to 5'-FAM/3'-TAMRA labelled F21T G-quadruplex DNA (unknown origin) assessed as change in melting temperature at 4 uM by FRET assay
[21] = Binding affinity to 5'-FAM/3'-TAMRA labelled F21T G-quadruplex DNA (unknown origin) assessed as increase in melting temperature at 4 uM in presence of 5 to 10 uM 12-mer duplex DNA by FRET assay

Poly [ADP-ribose] polymerase 1, sequence (P09874 whole entry): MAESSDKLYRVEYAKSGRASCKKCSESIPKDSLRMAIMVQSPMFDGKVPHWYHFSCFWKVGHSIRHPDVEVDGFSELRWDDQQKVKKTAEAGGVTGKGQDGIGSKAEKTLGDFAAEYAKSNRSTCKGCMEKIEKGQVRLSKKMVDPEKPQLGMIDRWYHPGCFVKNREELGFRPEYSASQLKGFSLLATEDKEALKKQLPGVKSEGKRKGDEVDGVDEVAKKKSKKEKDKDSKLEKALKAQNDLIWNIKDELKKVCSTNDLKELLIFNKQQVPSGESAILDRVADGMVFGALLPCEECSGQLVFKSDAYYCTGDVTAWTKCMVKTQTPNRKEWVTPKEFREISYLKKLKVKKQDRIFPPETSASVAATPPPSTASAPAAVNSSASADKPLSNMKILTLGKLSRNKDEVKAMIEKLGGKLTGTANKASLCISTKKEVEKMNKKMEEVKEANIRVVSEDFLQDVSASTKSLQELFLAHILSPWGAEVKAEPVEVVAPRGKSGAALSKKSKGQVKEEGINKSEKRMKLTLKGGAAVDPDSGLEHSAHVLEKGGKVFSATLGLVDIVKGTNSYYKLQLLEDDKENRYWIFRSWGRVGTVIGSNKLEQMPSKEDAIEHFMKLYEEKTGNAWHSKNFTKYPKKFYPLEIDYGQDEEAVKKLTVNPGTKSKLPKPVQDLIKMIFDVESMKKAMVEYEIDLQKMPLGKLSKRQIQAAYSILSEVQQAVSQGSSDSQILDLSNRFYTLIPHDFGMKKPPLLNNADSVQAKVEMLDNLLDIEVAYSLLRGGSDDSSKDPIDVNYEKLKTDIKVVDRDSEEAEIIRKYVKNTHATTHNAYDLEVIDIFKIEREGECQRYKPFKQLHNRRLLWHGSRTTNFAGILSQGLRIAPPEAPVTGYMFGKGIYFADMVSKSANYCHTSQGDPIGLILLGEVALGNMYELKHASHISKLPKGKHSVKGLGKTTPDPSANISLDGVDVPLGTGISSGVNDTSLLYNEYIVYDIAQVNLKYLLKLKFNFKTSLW

Row | SMILES | ΔTm (Homo sapiens [1]) | ΔTm (Homo sapiens [2]) | ΔTm (Homo sapiens [3]) | Activity (Homo sapiens [4]) | Activity (BJeH-LT [5]) | Activity (hTERT-BJ) | Activity (BJeH-LT [6]) | Activity (BJeH-LT [7]) | other results
1 | COC(=O)c1cc2c(=O)[nH]c3ccccc3c2s1 | 1.5 °C | 2.2 °C | 1.9 °C | Active | Active | Non-Toxic | inactive | inactive | 
2 | Cn1c(=O)c2ccccc2c2sc(C(=O)NCCN3CCC(Cc4ccccc4)CC3)cc21 | 1.6 °C | 3 °C | 10.5 °C | Active | Active | Non-Toxic | Active | inactive | Activity (Homo sapiens [8]): Active; Activity [9]: inactive
3 | COC(=O)c1cc2c(=O)n(C)c3ccccc3c2s1 | 0.4 °C | 0.4 °C | 2.4 °C | Active |  |  |  | inactive | Activity (Homo sapiens [10]): inactive; Activity (BJeH-LT [11]): inactive
4 | CN1C(=O)C2C=C(C(=O)NCCN3CCC(Cc4ccccc4)CC3)SC2c2ccccc21 (stereo unspecified) |  |  |  | Active |  |  | Active |  | Activity (DLD-1 [12]): Active; Activity (DLD-1 [13]): Active
5 | O=c1[nH]c2sccc2c2ccccc12 |  |  |  | inactive | inactive |  |  |  | Activity (DLD-1 [12]): inactive; Activity (DLD-1 [13]): inactive
6 | COC(=O)c1cc2c(s1)c1ccccc1c(=O)n2C | -0.8 °C | 1.4 °C | 1.4 °C | Active | Active | Non-Toxic | inactive | inactive | 
7 | Oc1nc(-c2ccc(C(F)(F)F)cc2)nc2c1CSCC2 |  |  |  | inactive |  |  |  |  | 

Further lines, with some results ahead:

Row | ΔTm (Homo sapiens [1]) | ΔTm (Homo sapiens [2]) | ΔTm (Homo sapiens [3]) | SMILES | Activity (Homo sapiens [4]) | Activity (BJeH-LT [5]) | Activity (hTERT-BJ) | Activity (BJeH-LT [6]) | Activity (BJeH-LT [7]) | other results
8 | 0 °C | 1.1 °C | 2.4 °C | Cc1nc2c(O)cccc2c(=O)[nH]1 |  |  |  |  |  | 
9 | 0.9 °C | 0.9 °C | 3 °C | COC(=O)c1cc2[nH]c(=O)c3ccccc3c2s1 | Active |  |  |  | inactive | Activity (BJeH-LT [11]): inactive
10 | 0.3 °C | 2.6 °C | 7.7 °C | O=C(NCCN1CCC(Cc2ccccc2)CC1)c1cc2c(=O)[nH]c3ccccc3c2s1 | Active | Active | Non-Toxic | Active | inactive | Activity (Homo sapiens [8]): Active; Activity [9]: inactive
11 | 0.7 °C | 2 °C | 4.2 °C | O=C(NCCN1CCC(Cc2ccccc2)CC1)c1cc2[nH]c(=O)c3ccccc3c2s1 |  |  |  |  | inactive | inhibition (Homo sapiens [14]): Active; IC50 [15]: 223 nM
12 | 5.8 °C | 5.5 °C | 7 °C | Cn1c(=O)c2cc(C(=O)NCCN3CCC(Cc4ccccc4)CC3)sc2c2ccccc21 | Active | Active | Non-Toxic | Active | inactive | Activity (Homo sapiens [16]): Active; Activity (Homo sapiens [17]): Active; Activity (Homo sapiens [18]): Active; Activity [9]: inactive; Kd [19]: 240 nM; ΔTm [20]: 4.5 °C; Activity [21]: Active
13 | 0.1 °C | 1.3 °C | 2.6 °C | COC1CCN(C(=O)c2cc(Cc3n[nH]c(=O)c4ccccc34)ccc2F)CC1 | inactive |  |  |  |  | 
